The results in this text go back to patent publication US20110301153A1, “METHODS OF TREATING CANCER” (The Trustees of the University of Pennsylvania, priority 2008, published 2011).

Holding throughout (type): cell-based, human
For assay [1], the system named is SF188 cells. The assay is described as follows: Glutamine starvation of SF188 cells with alpha-ketoglutarate replacement, viability by trypan blue dye exclusion. The settings on record: glutamine replaced with 7 mM dimethyl α-ketoglutarate, 25 mM glucose in medium. The procedure:
FIG. 1 concerns glutamine catabolism in the human glioma line SF188. (A) Protein synthesis is a minor fate of glutamine carbon. SF188 cells were cultured in medium supplemented with 0.01% [^14C-U5]glutamine relative to unenriched glutamine for 4 h. [^14C-U5]glutamine in SSA precipitated protein (striped bar) and total glutamine consumed from the medium (grey bar) are presented as the mean±standard deviation (SD) of four independent experiments. (B) The requirement for glutamine can be satisfied by alpha-ketoglutarate. SF188 cells were allowed to plate in complete medium and then cultured in either glutamine-depleted medium (−glutamine), complete medium (+glutamine), or glutamine-depleted medium supplemented with 7 mM dimethyl α-ketoglutarate (−glutamine +α-ketoglutarate). Cell viability was determined at the time points shown by trypan blue dye exclusion. The data presented are the mean±SD of triplicate samples. Representative data from one of three independent experiments are shown.
SF188 cells (UC Brain Tumor Research Center, SF, CA) and SV40-immortalized MEF stably transfected with MycER (a gift from Drs. A T Tikhonenko and R. A. Amaravadi of University of Pennsylvania, Philadelphia, Pa.) were cultured in DMEM (Invitrogen), 10% FBS (Gemini Biosystems), 100 units/ml Penicillin, 100 ug/ml Streptomycin, 25 mM glucose, and 6 mM L-glutamine at 37° C. in a 5% CO2 incubator. […]

The test system of assay [2] is shCTRL SF188 cells. The assay can be described thus: AOA treatment of SF188 cells transduced with control shRNA, viability by trypan blue dye exclusion. As to conditions: P<0.01. The procedure: (§1) (A) Myc-suppressed SF188 cells are resistant to glutamine starvation. shMYC and shCTRL SF188 cells, described in FIG. 3B, were allowed to plate in the presence of glutamine and then cultured in the absence of glutamine. Cell viability was determined at the time points shown by trypan blue dye exclusion. The data points shown represent the mean±SD of triplicate samples. (B) Myc-suppressed SF188 cells are resistant to an inhibitor of glutaminolysis. shMYC and shCTRL SF188 cells, described in FIG. 3B, were allowed to plate in the presence of glutamine and then were treated with 500 μM aminooxyacetate (AOA). Cell viability was determined at the time points shown by trypan blue dye exclusion. AOA-treated shCTRL cells were also treated with 7 mM dimethyl α-ketoglutarate (AOA+α-ketoglutarate). The data points shown represent the mean±SD of triplicate samples.
(§2) Lentivirus was packaged in 293T cells co-transfected with pLKO.1-puro c-Myc or Luciferase-control shRNA plasmid (Sigma) in addition to the pVSV-G and pCMVdelta8.2 helper plasmids using lipofectamine 2000 (Sigma). […]
(§3) SF188 cells were treated with AOA (Sigma) at doses ranging from 500 nM-500 μM and viability was assessed 24 h post-treatment. […] After allowing to plate overnight, cells were treated with 500 μM for 24 h, and then viability was assessed using trypan blue dye exclusion.

Assay [3] relates to SF188 cells. The assay can be described thus: AOA dose-finding, viability of SF188 cells. The settings on record: doses 500 nM-500 μM, viability 24 h post-treatment. The procedure:
SF188 cells (UC Brain Tumor Research Center, SF, CA) and SV40-immortalized MEF stably transfected with MycER (a gift from Drs. A T Tikhonenko and R. A. Amaravadi of University of Pennsylvania, Philadelphia, Pa.) were cultured in DMEM (Invitrogen), 10% FBS (Gemini Biosystems), 100 units/ml Penicillin, 100 ug/ml Streptomycin, 25 mM glucose, and 6 mM L-glutamine at 37° C. in a 5% CO2 incubator. To avoid depleting […], all experiments were carried out under subconfluent conditions. For glutamine starvation experiments, DMEM without glutamine (Invitrogen) was supplemented with 10% dialyzed FBS (Gemini Biosystems). For metabolic tracing experiments, DMEM without glutamine and with 10% dialyzed FBS was supplemented with either L-glutamine that was unenriched or with L-[U-^13C5]glutamine (Isotec), [U-^14C5]glutamine (GE Amersham), and [γ-^15N]glutamine (Cambridge Isotope Laboratories). DMEM without glucose (Sigma) was supplemented with [U-^14C6]glucose (Sigma). To activate MycER, cells were incubated with 200 nM 4-hydroxytamoxifen for 24 hours.
SF188 cells were treated with AOA (Sigma) at doses ranging from 500 nM-500 μM and viability was assessed 24 h post-treatment. Moreadith R W & Lehninger A L (1984) J. Biol. Chem. 259(10):6215-6221. […] After allowing to plate overnight, cells were treated with 500 μM for 24 h, and then viability was assessed using trypan blue dye exclusion.

In assay [4] the test system is shMYC SF188 cells. The assay can be described thus: AOA treatment of SF188 cells transduced with MYC-shRNA, viability by trypan blue dye exclusion. The settings on record: 500 μM AOA, 24 h, P<0.01. The procedure:
as §1, §2, §3

Assay [5] relates to SF188 cells stably expressing Bcl-xL. The assay can be described thus: Akt/PI3K inhibitor treatment, media metabolite analysis (glucose, lactate, glutamine, ammonia). The settings on record: 8 hours, medium analysed.
Protocol: SF188 cells stably expressing Bcl-xL were treated with AktiVIII at doses ranging from 0-20 μM. Medium was collected and analyzed for glucose, lactate, glutamine, and ammonia. The rates shown were calculated from the difference in metabolite concentration between the medium at the time point shown and fresh medium. The data points presented are the mean±SD of triplicate samples.
SF188 cells stably expressing Bcl-xL were plated at a density of 4×10^5 cells in E-well plate format, and incubated in DMEM with 10% FCS for 36 hours prior to treatment with AKT inhibitor VIII (Calbiochem) at 0, 0.1, 2, 5, and 10 μM concentrations in triplicate. After 8 hours, medium samples were collected for metabolite analysis, and viable cells were counted using trypan blue exclusion.
Media glucose, glutamine, lactate, and ammonia concentrations were analyzed using the Nova Biomedical Flex Analyzer (Waltham, Mass.).

`COC(=O)CCC(=O)C(=O)OC` [dimethyl α-ketoglutarate]: the “cell death in glutamine-deficient medium” value in assay [1] is recorded as “suppressed the cell death”. Moreover, in assay [2] (7 mM dimethyl α-ketoglutarate added to AOA-treated SF188 parental and control transduced cells), the “reversal of AOA-induced toxicity (death)” value is given as “completely suppressed the death”.
`NOCC(=O)O` [AOA, aminooxyacetate]: the “cell viability / death of cells transduced with control shRNA” value in assay [2] (500 μM AOA, 24 h, trypan blue dye exclusion) was “selectively induced the death”. Also, the “lowest dose that killed a significant fraction of the cells” value in assay [3] amounted to 500 µM. Further, in assay [4], the “cell viability of cells transduced with MYC-shRNA” value is “without affecting the viability”.
Regarding `O=c1[nH]c2ccccc2n1C1CCN(Cc2ccc(-c3nc4cc5[nH]cnc5cc4nc3-c3ccccc3)cc2)CC1` [AKT inhibitor VIII], in assay [5], the ammonia production result was “neither glutamine metabolism nor ammonia production was inhibited”; the “glucose metabolism (consumption)” value is “suppressed glucose metabolism and lactate production in a dose-dependent fashion”; the “glutamine metabolism (consumption)” value is recorded as “neither glutamine metabolism nor ammonia production was inhibited”; the lactate production entry was “suppressed glucose metabolism and lactate production in a dose-dependent fashion”.
